The source of these data is publication PMC9030223, “MBP-11901 Inhibits Tumor Growth of Hepatocellular Carcinoma through Multitargeted Inhibition of Receptor Tyrosine Kinases” (Cancers, 2022).

Common to all, as to experiment: CCK-8 cell proliferation/cytotoxicity assay
Common to all, as to format: cell-based

In assay [1] the test system is HepG2. To be noted: Homo sapiens; HepG2, 24 h treatment. As to the method: (§1) Cell proliferation was detected using the Cell Counting Kit-8 (CCK-8, Cat. CK04-13; Dojindo Laboratories, Kumamoto, Japan) according to the manufacturer’s instruction. To evaluate cytotoxicity, cells were seeded in a 96-well plate (FHC, 1 × 10^4 cells/well; Caki-2, PLC/PFR.5, and MCF 10A, 1 × 10^4 cells/well; AML12, HepG2, Hep3B, and Huh-7 1.2 × 10^4 cells/well; HeLa, HEK-293, A549, and PC-3, 1.5 × 10^4 cells/well; HT-29, MCF-7, C6, and NE-4C, 2 × 10^4 cells/well). After attachment and stabilization of cells for 24 h, the medium was switched with fresh containing various concentrations (0, 1, 5, 10, 25, 50, and 100 μM) of MBP-11901, and cells were incubated for 22 h. Next, CCK-8 solution was added to each well, and cells were incubated for another 2 h. Absorbance was then measured at 450 nm using a microplate reader (SpectraMax i3, Molecular Devices, San Jose, CA, USA). The IC50 and log IC50 values were calculated using GraphPad Prism (version 5.02; GraphPad PRISM software Inc. San Diego, CA, USA). All experiments were independently performed 3 times. The graph of log IC50 values represents average values.

In assay [2] the test system is Huh-7. Particulars: Homo sapiens; Huh-7, 24 h treatment. As to the method:
as §1

Assay [3] has as its system PLC/PRF5. Particulars: Homo sapiens, PLC-PRF-5; PLC/PRF5, 24 h treatment. The protocol:
as §1

Assay [4] relates to Hep3B. To be noted: Homo sapiens, 24 h treatment. The protocol: as §1
Assay [5] relates to AML12 normal liver cells. Particulars: Mus musculus, AML12, 24 h, 24 h treatment. As to the method:
as §1

In the case of `CNC(=O)c1cc(Oc2ccc(NC(=O)Nc3ccc(Cl)c(C(F)(F)F)c3)cc2)ccn1` [sorafenib, reference compound], the 50% inhibitory concentration (IC50) in assay [1] is 3.85 ± 0.14 µM; in assay [2], 6.47 ± 0.88 µM; in assay [3], 6.81 ± 0.76 µM; in assay [4], 3.64 ± 0.99 µM; in assay [5], 13.4 ± 2.77 µM.

Broadly, the IC50 is the concentration that gives 50% inhibition. The low end stands for inhibition by little substance, the high end for a need for much substance.
